Publication PMC11352108, “Anti-Biofilm and Anti-Inflammatory Properties of the Truncated Analogs of the Scorpion Venom-Derived Peptide IsCT against Pseudomonas aeruginosa” (Antibiotics, 2024)
Where no end group is shown, it is not given here.

How the values were obtained:
[1] = tested on: P. aeruginosa PAO1 biofilms; assay: Biofilm susceptibility assay (crystal violet); assay type: cell-based, Pseudomonas aeruginosa; conditions: 150 μM, 24 h, 37 °C; for Decrease in P. aeruginosa biofilm biomass: 10^6 CFU/mL, OD 550 nm, compared with untreated control
Protocol: The effect of the truncated IsCT analogs on biofilms of P. aeruginosa was assessed using a method that was described previously. Briefly, 100 μL of the test peptides (final concentration, 150 μM) was added to each well of a 96-well microtiter plate (Nunc^TM, Roskilde, Denmark). Then, an aliquot of P. aeruginosa PAO1 culture was added to each well to obtain a final concentration of 10^6 CFU/mL. The bacterial culture alone was included as an untreated control. Following a 24-h incubation at 37 °C, unattached planktonic cells were discarded, and the wells were carefully washed twice with PBS with a pH of 7.4. Thereafter, biofilm biomasses were quantified by 0.1% crystal violet staining. After excess stains were discarded, the wells were washed with PBS pH 7.4 and left to air dry for 2 h at 37 °C. The biofilm biomass was subsequently dissolved by the addition of 30% acetic acid, and the plates were spectrophotometrically read at 550 nm using a BioTek Synergy HT microplate reader.

sheep red blood cells = assay: Hemolytic assay; assay type: cell-based; conditions: for Hemolytic activity (in words): sheep erythrocytes, concentrations as high as 150 μM; for % Hemolysis, Exp.1: replicate Exp.1; for % Hemolysis, Exp.2: replicate Exp.2; for % Hemolysis, Exp.3: replicate Exp.3
Protocol: A hemolytic assay was carried out according to the previously described method using commercially sourced sheep red blood cells (Professional Nanomed Company Limited, Bangkok, Thailand). One hundred microliters of a 2% sheep red blood cell suspension prepared in phosphate-buffered saline (PBS) pH 7.4. was incubated for 1 h at 37 °C with 100 μL of the studied peptides (final concentration of 150 µM). After centrifugation at 1000× g for 5 min, 100 μL of supernatant was transferred to new 96-well plates, and the release of hemoglobin was monitored, measuring an optical density (OD) at 405 nm using a BioTek Synergy HT microplate reader. Red blood cells treated with PBS pH 7.4 were used as a negative control, while those treated with 1% Triton X-100 were used as a positive control. The percent hemolysis was calculated as follows:(1) % Hemolysis=OD405 nm of the test peptide−OD405 nm of negative control/OD405 nm of positive control−OD405 nm of negative control × 100

P. aeruginosa biofilm = conditions: at 4 μM; cited from earlier work
Source text: We next determined the anti-biofilm potentials of the truncated IsCT analogs against biofilms formation of P. aeruginosa. […] Antibacterials with growth-inhibitory activity may accelerate the evolutionary pressure and ultimately lead to troublesome antibiotic resistance.

[2] = sheep red blood cells, 1 h, 37 °C, peptides 150 μM (Triton X-100 1%)

Row | Substance | Decrease in P. aeruginosa biofilm biomass [1] | Hemolytic activity (in words) (sheep red blood cells) | % Hemolysis, Exp.1 (sheep red blood cells; [2]) | % Hemolysis, Exp.2 (sheep red blood cells; [2]) | % Hemolysis, Exp.3 (sheep red blood cells; [2]) | Anti-biofilm activity (in words) [1] | Inhibition of P. aeruginosa biofilm production (P. aeruginosa biofilm) | % Hemolysis (sheep red blood cells; 2% sheep red blood cells in PBS pH 7.4, 1 h, 37 °C, peptides 150 μM (Triton X-100 1%, positive control), OD 405 nm, mean ± SEM of independent experiments) | % Hemolysis, Mean (sheep red blood cells; sheep red blood cells, 1 h, 37 °C, peptides 150 μM (Triton X-100 1%), mean of 3 experiments (supplement))
1 | ILGKIGIKSLF [IsCT-Δ6-7] | 28.27% | decreased hemolytic activity | 0.00% | 0.0473% | 2.44% |  |  |  | 
2 | ILGKIWIKSLF [IsCT-Δ7-8] |  | decreased hemolytic activity | 0.25% | 2.48% | 3.66% | less pronounced |  |  | 
3 | ILGKIKSLF [IsCT-Δ6-9] | 26.45% | decreased hemolytic activity | 0.38% | 0.00% | 1.03% |  |  |  | 
4 | ILGKIWKSLF [IsCT-Δ7-9] |  | decreased hemolytic activity | 0.18% | 0.00% | 1.13% | less pronounced |  |  | 
5 | β-defensin 2: an AMP, human beta-defensin 2 (GIGDPVTCLKSGAICHPVFCPRRYKQIGTCGLPGTKCCKKP; ends and bridges not checked; cysteine pairing not given here; UniProt O15263 24-64, looked up) |  |  |  |  |  |  | 40% |  | 
6 | Triton X-100 [reference compound] |  |  | 100.00% | 100.00% | 100.00% |  |  | 100.00 ± 0.00% | 100.00%
